≈ marks a conversion by molar mass, not a printed value. Where two headings read alike, the source gives them in different places. Blank lines part the entries; values can stand above or below the molecule they belong to.
Assays:
[1] = tested on: Plasmodium falciparum W2; assay: In vitro antimalarial activity assay; assay type: cell-based
Method: The in vitro antimalarial activity of the compounds was evaluated against the parasite (Plasmodium falciparum W2), which was cultured continuously according to a previously described method ([Lazaro et al., 2006]).

[2] = tested on: Arabidopsis thaliana Columbia-0 (Col-0); assay: Plant growth response assay (root growth); assay type: in vivo; details: 100 μM
Method: Arabidopsis thaliana Col-0, a model organism for plant growth and development, was used to test each isolated compound according to a previously described protocol ([Li X. et al., 2018]; [Huang et al., 2019]). Plants grown in 2% (v/v) DMSO were used as the negative control. Seeds of Col-0 incubated in 1 μM of 6-benzylaminopurine (BAP) were selected as the positive control. Test samples were dissolved in 2% (v/v) DMSO at various test concentrations for the experiment.

[3] = tested on: CCRF-CEM; assay: In vitro cancer cell cytotoxicity (MTT), CCRF-CEM; assay type: cell-based; details: Homo sapiens, positive control, quantity not given
Method: (§1) 7-Ethyl-10-hydroxycamptothecin (1.3, 10.8, 9.9, and 4.2 nM, respectively) was used as the positive control against four above-mentioned human cancer cell lines.

[4] = tested on: HCT-116; assay: In vitro cancer cell cytotoxicity (MTT), HCT-116; assay type: cell-based; details: Homo sapiens, positive control, quantity not given
Method: as §1

[5] = tested on: AGS; assay: In vitro cancer cell cytotoxicity (MTT), AGS; assay type: cell-based; details: Homo sapiens, positive control, quantity not given
Method: as §1

[6] = tested on: MDA-MB-231; assay: In vitro cancer cell cytotoxicity (MTT), MDA-MB-231; details: Homo sapiens, MDA-MB-231, read-out: cytotoxicity of positive control, MDA-MB-231
[7] = tested on: methicillin-resistant Staphylococcus aureus ATCC43300; assay: Antibacterial activity assay, MRSA; assay type: cell-based; details: 96-well plates, read-out: MIC, methicillin-resistant S. aureus ATCC43300
Method: Compounds 1−11 were evaluated for their antibacterial activities against methicillin-resistant Staphylococcus aureus ATCC43300 and Escherichia coli ATCC25922 in 96-well plates according to the method described by [Gu et al. (2018)]. Ciprofloxacin was selected as a positive control against the above-mentioned bacteria with MIC values of 0.5 μg/mL.

[8] = W2, in vitro, positive controls, read-out: EC50, P. falciparum W2 (positive controls)

EC50 ([1]; W2, read-out: EC50, P. falciparum W2 (positive controls)): 112 nM
Structure (SMILES): CCN(CC)CCCC(C)Nc1ccnc2cc(Cl)ccc12 (stereo not shown) [Chloroquine]

EC50 [1, 8]: 2.5 nM
Structure (SMILES): O=C1C(O)=C([C@H]2CC[C@H](c3ccc(Cl)cc3)CC2)C(=O)c2ccccc21 [atovaquone]

MIC [7]: 0.5 µg/mL (≈ 1.51 µM)
Structure (SMILES): O=C(O)c1cn(C2CC2)c2cc(N3CCNCC3)c(F)cc2c1=O [Ciprofloxacin]

Continued, molecule first:

Structure (SMILES): C[C@H](O)CCC[C@H]1OC(=O)c2c(O)cccc2[C@@H]1O [Compound 5, aspergimarin E]
root growth inhibitory activity in plant growth response assay [2]: root growth inhibitory activity was observed | inhibition of primary root growth of Col-0 ([2]; 10 days after seed germination): notable inhibition | inhibitory effect on lateral root growth of Col-0 ([2]; 10 days after seed germination): notable inhibition

Structure (SMILES): CCc1c2c(nc3ccc(O)cc13)-c1cc3c(c(=O)n1C2)COC(=O)[C@]3(O)CC [7-Ethyl-10-hydroxycamptothecin]
IC50 [3]: 1.3 nM | IC50 [4]: 9.9 nM | IC50 [5]: 4.2 nM | IC50 [6]: 10.8 nM

Structure (SMILES): C[C@@H]1CC[C@H]2[C@@H](C)C(=O)O[C@@H]3O[C@@]4(C)CC[C@@H]1[C@]32OO4 [artemisinin]
EC50 [1, 8]: 160 nM

Structure (SMILES): C[C@H](O)CCC[C@@H]1Cc2c(O)ccc(O)c2C(=O)O1 [Compound 1, aspergimarin A]
root growth inhibitory activity in plant growth response assay [2]: root growth inhibitory activity was observed | inhibitory effect on lateral root growth of Col-0 ([2]; 10 days after seed germination): significant inhibitory effect

From paper PMC6914834, “New Dihydroisocoumarin Root Growth Inhibitors From the Sponge-Derived Fungus Aspergillus sp. NBUF87” (Frontiers in Microbiology, 2019)
